Measured values: ChEMBL document CHEMBL5247610, “Discovery of 5-((4-(pyridin-3-yl)pyrimidin-2-yl)amino)-1H-indole-2-carboxamide derivatives as novel anti-cancer agents targeting Nur77” (Eur J Med Chem, 2022)
Calls of active or inactive are those of the source. The rule behind the calls is not given here.

Tests used:
[1] = Toxicity in BALB/c nude mouse xenografted with human HepG2 cells assessed as effect on lung damage at 50 mg/kg ip administered once every day for 14 days by H and E staining based analysis; type: organism-based; conditions: in vivo, 336 h, time 14 day
[2] = tested on: HepG2; experiment: Induction of apoptosis in human HepG2 cells transfected with Nur77 siRNA assessed as mitochondrial membrane potential loss by measuring proportion of cells with depolarized MMP at 10 uM incubated for 12 hrs by JC-1 staining based flow cytometry (reference value: 5.81%); type: functional
[3] = Selectivity index, ratio of IC50 for human L02 cells to IC50 for human HeLa cells by MTT assay; type: toxicity; conditions: L02 cells versus HeLa cells, read-out: Ratio IC50
[4] = tested on: HepG2; experiment: Antiproliferative activity against human HepG2 cells assessed as cell viability at 10 uM incubated for 48 hrs by MTT assay; type: functional; conditions: read-out: Activity
[5] = tested on: HepG2; experiment: Induction of apoptosis in human HepG2 cells transfected with Nur77 siRNA assessed as late necrotic cells at 10 uM incubated for 12 hrs by AnnexinV-FITC/PI staining based flow cytometry (reference value: 0.3%); type: functional
[6] = Selectivity index, ratio of IC50 for human L02 cells to IC50 for human Huh-7 cells by MTT assay; type: toxicity; conditions: L02 cells versus Huh-7 cells, read-out: Ratio IC50
[7] = tested on: HeLa; experiment: Antiproliferative activity against human HeLa cells assessed as reduction in cell viability incubated for 48 hrs by MTT assay; type: functional, cell-based
[8] = biological target: T1, Nuclear receptor subfamily 4immunitygroup A member 1 (Homo sapiens, UniProt P22736); experiment: Binding affinity to pBind-Nur77-LBD (unknown origin) transfected in HEK293T cells co-transfected with pG5-Luc assessed as inhibition of Nur77 transcriptional activity by measuring inhibition of Nur77-driven luciferase activity incubated for 12 hrs by luciferase reporter gene assay; type: cell-based; conditions: filed as modulator, dose 1.25-5 µM
T1 sequence (P22736 whole entry, the tested form may be a part): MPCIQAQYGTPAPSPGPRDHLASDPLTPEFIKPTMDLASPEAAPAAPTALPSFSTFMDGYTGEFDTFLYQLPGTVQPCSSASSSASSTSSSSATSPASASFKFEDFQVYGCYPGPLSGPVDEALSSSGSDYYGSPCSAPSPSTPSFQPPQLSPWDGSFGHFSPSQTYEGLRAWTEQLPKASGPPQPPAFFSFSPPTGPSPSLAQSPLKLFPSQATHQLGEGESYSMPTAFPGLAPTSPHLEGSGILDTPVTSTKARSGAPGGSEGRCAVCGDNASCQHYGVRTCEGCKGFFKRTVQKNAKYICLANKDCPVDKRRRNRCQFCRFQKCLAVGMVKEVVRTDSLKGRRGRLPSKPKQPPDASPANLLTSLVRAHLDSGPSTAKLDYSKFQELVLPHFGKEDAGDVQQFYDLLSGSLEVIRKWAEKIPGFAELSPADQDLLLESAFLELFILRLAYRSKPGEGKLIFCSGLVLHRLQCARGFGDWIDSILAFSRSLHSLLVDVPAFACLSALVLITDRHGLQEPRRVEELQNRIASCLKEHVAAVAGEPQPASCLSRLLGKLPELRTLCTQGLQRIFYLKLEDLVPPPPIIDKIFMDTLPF

[9] = tested on: HepG2; experiment: Antitumor activity against human HepG2 cells xenografted in BALB/c nude mouse assessed as inhibition of tumor volume at 50 mg/kg, ip administered once every day for 14 days; type: functional, organism-based; conditions: time 14.0 day
[10] = biological target: T2, Retinoic acid receptor RXR-alpha (Homo sapiens) (UniProt P19793); experiment: Binding affinity to pBind-RXRalpha-LBD (unknown origin) transfected in HEK293T cells co-transfected with pG5-Luc at 5 uM incubated for 12 hrs by luciferase reporter gene assay; type: cell-based
T2 sequence (whole entry): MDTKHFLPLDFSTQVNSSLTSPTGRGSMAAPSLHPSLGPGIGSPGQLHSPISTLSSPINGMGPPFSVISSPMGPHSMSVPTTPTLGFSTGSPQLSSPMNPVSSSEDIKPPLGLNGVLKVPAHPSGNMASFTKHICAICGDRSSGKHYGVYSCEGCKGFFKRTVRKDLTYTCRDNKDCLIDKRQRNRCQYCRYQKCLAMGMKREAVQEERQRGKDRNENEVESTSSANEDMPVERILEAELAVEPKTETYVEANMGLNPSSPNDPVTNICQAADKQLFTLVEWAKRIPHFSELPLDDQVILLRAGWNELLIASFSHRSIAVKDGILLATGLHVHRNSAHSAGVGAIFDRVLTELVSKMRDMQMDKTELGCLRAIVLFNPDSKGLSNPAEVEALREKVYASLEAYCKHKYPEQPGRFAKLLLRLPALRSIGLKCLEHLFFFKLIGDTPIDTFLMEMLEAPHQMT

[11] = biological target: T1, Nuclear receptor subfamily 4immunitygroup A member 1; experiment: Modulation of Myc-Nur77 (unknown origin) transfected in HEK293T cells assessed as induction of Nur77 translocation from nucleus to cytoplasm at 10 uM incubated for 2 to 4 hrs by western blot analysis; type: cell-based; conditions: filed as modulator, time 2-4 hrs
[12] = tested on: SMMC-7721; experiment: Antiproliferative activity against human SMMC-7721 cells assessed as reduction in cell viability incubated for 48 hrs by MTT assay; type: functional, cell-based; conditions: SMMC-7721, 48 h
[13] = Toxicity in Zebra fish AB embryo assessed as induction of morphological abnormalities at 0.5 uM incubated for 72 hrs; parameters: species or system Danio rerio; conditions: zebrafish
[14] = tested on: HepG2; experiment: Antiproliferative activity against human HepG2 cells assessed as reduction in cell viability incubated for 48 hrs by MTT assay; type: functional, cell-based; conditions: HepG2, 48 h
[15] = tested on: HepG2; experiment: Antitumor activity against human HepG2 cells xenografted in BALB/c nude mouse assessed as inhibition of tumor weight at 50 mg/kg, ip administered once every day for 14 days; type: functional, organism-based; conditions: time 14.0 day
[16] = tested on: HepG2; experiment: Induction of apoptosis in human HepG2 cells assessed as induction of PARP cleavage incubated for 12 hrs by western blot analysis; type: functional, cell-based
[17] = biological target: T1, Nuclear receptor subfamily 4immunitygroup A member 1; experiment: Binding affinity to Nur77 ligand binding domain (unknown origin) by fluorescence quenching assay
[18] = tested on: HepG2; experiment: Antitumor activity against human HepG2 cells xenografted in BALB/c nude mouse assessed as increase in cleaved caspase 3 expression in tumor tissues at 50 mg/kg, ip administered once every day for 14 days by immunohistochemistry analysis; type: functional, organism-based; conditions: time 14.0 day
[19] = Selectivity index, ratio of IC50 for human L02 cells to IC50 for human A549 cells by MTT assay; type: toxicity; conditions: L02 cells versus A549 cells, read-out: Ratio IC50
[20] = Toxicity in BALB/c nude mouse xenografted with human HepG2 cells assessed as effect on liver damage at 50 mg/kg ip administered once every day for 14 days by H and E staining based analysis; type: organism-based; conditions: in vivo, 336 h, time 14 day
[21] = tested on: Huh-7; experiment: Antiproliferative activity against human Huh-7 cells assessed as reduction in cell viability incubated for 48 hrs by MTT assay; type: functional, cell-based; conditions: Huh-7, 48 h
[22] = Cytotoxicity against human L02 cells assessed as cell viability at 10 uM incubated for 48 hrs by MTT assay; type: toxicity, cell-based; conditions: read-out: Activity
[23] = tested on: HepG2; experiment: Induction of apoptosis in human HepG2 cells assessed as viable cells at 10 uM incubated for 12 hrs by AnnexinV-FITC/PI staining based flow cytometry (reference value: 96.32%); type: functional; conditions: read-out: Activity
[24] = Selectivity index, ratio of IC50 for human L02 cells to IC50 for human SMMC-7721 cells by MTT assay; type: toxicity; conditions: L02 cells versus SMMC-7721 cells, read-out: Ratio IC50

- IC50 [7]: 3.75 µM
- Activity [8]: Dose-Dependent Effect
- Activity [10]: inactive
- Activity [11]: Active
- IC50 [12]: 5.91 µM
- IC50 [14]: 9.04 µM
- Kd [17]: 0.121 µM
- IC50 [21]: 3.58 µM
Compound: CN(C)CCCNC(=O)c1cc2cc(Nc3nccc(-c4cccnc4)n3)ccc2[nH]1
- Activity [1]: Non-Toxic
- Activity [2]: 8.91%
- selectivity ratio [3]: 3
- viability at 10 µM [4]: 43.7%
- Activity [5]: 0.75%
- selectivity ratio [6]: 3.14
- Activity [9]: Active
- Activity [13]: Non-Toxic
- Activity [15]: Active
- Activity [16]: Dose-Dependent Effect
- Activity [18]: Active
- selectivity ratio [19]: 1.7
- Activity [20]: Non-Toxic
- viability at 48 h, 10 µM [22]: 53.4%
- viability at 10 µM [23]: 72.7%
- selectivity ratio [24]: 1.9
